One may read the IC50 as the midpoint of a concentration-inhibition curve.

The values that follow come from patent US6498159B1, “Phthalazine derivatives and remedies for erectile dysfunction” (Eisai Co., Ltd., priority 1998, dated 2002).

In the assay the target is PDE5 (Sus scrofa, UniProt A0A287B475). The experiment in a line: Inhibitory action on the enzyme cGMP-PDE obtained from porcine platelets. It is filed as biochemical. Particulars: 1 μM cGMP substrate, 1 mM EGTA, read-out: PDE 5 IC50. Here is the method: 1) Inhibitory Action on the Enzyme cGMP-PDE Obtained from Porcine Platelets
The inhibitory activity of a test compound on the enzyme cGMP-PDE prepared from porcine platelets was determined by adding a solution of the test compound dissolved in DMSO to a reaction solution, where 1 μM cGMP was used as the substrate in the presence of 1 mM EGTA in accordance with a method of Tompson et al. The final concentration of DMSO in the reaction solution was 1% or less. Preparation of cGMP-PDE was conducted as follows. Porcine platelets were added to buffer A (20 mM Tris/HCl, 2 mM magnesium acetate, 10 mM 2-mercaptoethanol, 0.1 mM EGTA; pH 7.4), and then sonicated. The resulting suspension was centrifuged at 100,000×g for 60 min, and the resulting supernatant was subjected to a column (DEAE-Toyopearl 650S produced by Tosoh, Tokyo, Japan). After the column was washed with buffer A, the enzyme was eluted with a gradient of from 0.075 to 0.25 M NaCl in buffer A to give a CGMP-PDE fraction. The resulting fraction was dialyzed, concentrated and stored.

Structures can show the parent of a compound that is named as a salt.

With `COc1ccc(CNc2nnc(-c3cccnc3)c3ccc(C#N)cc23)cc1Cl` [Example 1, 4-(3-Chloro-4-methoxybenzyl)amino-6-cyano-1-(3-pyridyl)phthalazine Dihydrochloride], the IC50 is 0.78 nM.
The value for `COc1ccc(CNc2nnc(-c3ccccn3)c3ccc(C#N)cc23)cc1Cl` [Example 2, 4-(3-Chloro-4-methoxybenzyl)amino-6-cyano-1-(2-pyridyl)phthalazine Dihydrochloride] was 0.3 nM.
Then `COc1ccc(CNc2nnc(N3CCC(C#N)CC3)c3ccc(C#N)cc23)cc1Cl` [Example 3, 4-(3-Chloro-4-methoxybenzyl)amino-6-cyano-1-(4-cyanopiperidino)phthalazine Hydrochloride], with 1.1 nM; and `COc1ccc(CCNc2nnc(N3CCC(C#N)CC3)c3ccc(C#N)cc23)cc1Cl` [Example 4, 4-(3-Chloro-4-methoxyphenethyl)amino-6-cyano-1-(4-cyanopiperidino)phthalazine Hydrochloride], with 0.51 nM.
The value for `COc1ccc(CNc2nnc(N3CCC(N)CC3)c3ccc(C#N)cc23)cc1Cl` [Example 5, 1-(4-Aminopiperidino)-4-(3-chloro-4-methoxybenzyl)amino-6-cyanophthalazine Dihydrochloride] was 0.051 nM.
Consider `COc1ccc(CNc2nnc(N3CCC(O)(CO)CC3)c3ccc(C#N)cc23)cc1Cl` [Example 6, 4-(3-Chloro-4-methoxybenzyl)amino-6-cyano-1-[4-hydroxy-4-(hydroxymethyl)piperidino]phthalazine Hydrochloride], for which the IC50 came to 0.98 nM.
In the case of `COc1ccc(CNc2nnc(N3CCC4(CC3)COC(=O)C4)c3ccc(C#N)cc23)cc1Cl` [Example 11, 4-[(3-Chloro-4-methoxybenzyl)amino]-1-(3-oxo-2-oxa-8-azaspiro[4.5]dece-8-yl)-6-phthalazine Carbonitrile], the IC50 worked out at 0.68 nM.
In the case of `COc1ccc(CNc2nnc(N3CCC4(CC3)CC(=O)C4)c3ccc(C#N)cc23)cc1Cl` [Example 12, 4-[(3-Chloro-4-methoxybenzyl)amino]-1-(2-oxo-7-azaspiro[3.5]non-7-yl)-6-phthalazine Carbonitrile], the IC50 was 0.54 nM.
The value for `COc1ccc(CNc2nnc(C#CC(C)(C)N)c3ccc(C#N)cc23)cc1Cl` [Example 25, 1-(3-Amino-3-methyl-1-butynyl)-4-[(3-chloro-4-methoxybenzyl)amino]-6-phthalazinecarbonitrile Hydrochloride] was 0.16 nM; that for `COc1ccc(CNc2nnc(N3CCC(F)(CO)CC3)c3ccc(C#N)cc23)cc1Cl` [Example 43, 4-[(3-Chloro-4-methoxybenzyl)amino]-1-[4-fluoro-4-(hydroxymethyl)piperidino]-6-phthalazinecarbonitrile Hydrochloride] was 0.23 nM; that for `COc1ccc(CNc2nnc(N3CCC(=NO)CC3)c3ccc(C#N)cc23)cc1Cl` [Example 50, 4-[(3-Chloro-4-methoxybenzyl)amino]-1-(4-hydroxyiminopiperidino)-6-phthalazinecarbonitrile Hydrochloride] was 0.24 nM.
The value for `COc1ccc(CNc2nnc(N3[C@@H]4CC[C@H]3C[C@@H](O)C4)c3ccc(C#N)cc23)cc1Cl` [Example 52, (endo)-4-[(3-Chloro-4-methoxybenzyl)amino]-1-(3-hydroxy-8-azabicyclo[3.2.1]oct-8-yl)-6-phthalazinecarbonitrile Hydrochloride] was 0.2 nM; that for `COc1ccc(CNc2nnc(N3CCC(O)CC3)c3ccc(C#N)cc23)cc1I` [Example 76, 1-(4-Hydroxypiperidino)-4-[(3-iodo-4-methoxybenzyl)amino]-6-phthalazinecarbonitrile Hydrochloride] was 0.13 nM; that for `COc1ccc(CNc2nnc(N3CC[C@H](CO)C3)c3ccc(C#N)cc23)cc1Br` [Example 79, 4-[(3-Bromo-4-methoxybenzyl)amino]-1-[(3S)-3-(hydroxymethyl)tetrahydro-1H-1-pyrrolyl]-6-phthalazinecarbonitrile Hydrochloride] was 0.27 nM.
The value for `COc1ccc(CNc2nnc(N3CCC(CO)CC3)c3ccc(C#N)cc23)cc1Br` [Example 84, 4-[(3-Bromo-4-methoxybenzyl)amino]-1-[4-(hydroxymethyl)piperidino]-6-phthalazinecarbonitrile Hydrochloride] was 0.93 nM; that for `COc1ccc(CNc2nnc(N3[C@@H]4CC[C@H]3C[C@@H](O)C4)c3ccc(C#N)cc23)cc1Br` [Example 85, (endo)-4-[(3-Bromo-4-methoxybenzyl)amino]-1-(3-hydroxy-8-azabicyclo[3.2.1]octo-8-yl)-6-phthalazine Carbonitrile] was 0.12 nM.
Turning to `COc1ccc(CNc2nnc(N3CCC(O)CC3)c3ccc(-n4cccn4)cc23)cc1Cl` [Example 105, 1-[4-[(3-Chloro-4-methoxybenzyl)amino]-6-(1H-1-pyrazolyl)-1-phthalazinyl]-4-piperidinol Hydrochloride], the half-inhibitory concentration (IC50) was 0.1 nM.
The value for `CO/N=C/c1ccc2c(N3CCC(O)CC3)nnc(NCc3ccc(OC)c(Cl)c3)c2c1` [Example 110, 4-[(3-Chloro-4-methoxybenzyl)amino]-1-(4-hydroxypiperidino)-6-phthalazinecarbaldehyde O6-Methyloxime Hydrochloride] was 0.66 nM; that for `COc1ccc(CNc2nnc(N3CCC[C@@H](O)C3)c3ccc(C#N)cc23)cc1Cl` [Production Example 1, 4-(3-Chloro-4-methoxybenzyl)amino-6-cyano-1-[(3R)-3-hydroxypiperidino]phthalazine Hydrochloride] was 0.09 nM.
The value for `COc1ccc(CNc2nnc(N3CCC[C@H]3CO)c3ccc(C#N)cc23)cc1Cl` [Production Example 3, 4-(3-Chloro-4-methoxybenzyl)amino-6-cyano-1-[(2S)-2-hydroxymethylpyrrolidino]phthalazine Hydrochloride] was 0.72 nM.
`COc1ccc(CNc2nnc(N3CCCC(CO)C3)c3ccc(C#N)cc23)cc1Cl` (centres unmarked) [Production Example 4, 4-(3-Chloro-4-methoxybenzyl)amino-6-cyano-1-(3-hydroxymethylpiperidino)phthalazine Hydrochloride]: the concentration for half-maximal inhibition (IC50) turned out to be 0.19 nM.
The value for `COc1ccc(CCNc2nnc(N3CCCC(CO)C3)c3ccc(C#N)cc23)cc1Cl` (centres unmarked) [Production Example 5, 4-(3-Chloro-4-methoxyphenethyl)amino-6-cyano-1-(3-hydroxymethylpiperidino)phthalazine Hydrochloride] was 0.23 nM; that for `COc1ccc(CCNc2nnc(N3CCC(CO)CC3)c3ccc(C#N)cc23)cc1Cl` [Production Example 6, 4-(3-Chloro-4-methoxyphenethyl)amino-6-cyano-1-(4-hydroxymethylpiperidino)phthalazine] was 0.5 nM.
Then `COc1ccc(CNc2nnc(N(C)Cc3ccccn3)c3ccc(C#N)cc23)cc1Cl` [Production Example 7, 4-(3-Chloro-4-methoxybenzyl)amino-6-cyano-1-[methyl(2-pyridylmethyl)amino]phthalazine Dihydrochloride], with 0.03 nM.
Turning to `COc1ccc(CNc2nnc(N(C)CCc3ccccn3)c3ccc(C#N)cc23)cc1Cl` [Production Example 8, 4-(3-Chloro-4-methoxybenzyl)amino-6-cyano-1-{N-methyl-[2-(2-pyridyl)ethyl]amino}phthalazine Dihydrochloride], the IC50 amounted to 0.47 nM.
Then `COc1ccc(CNc2nnc(N3CCC(O)C(C)C3)c3ccc(C#N)cc23)cc1Cl` (centres unmarked) [Production Example 11, 4-[(3-Chloro-4-methoxybenzyl)amino]-1-(4-hydroxy-3-methylpiperidino)-6-phthalazinecarbonitrile Hydrochloride], with 0.24 nM.
